Measured values from US20200270233A1, “DHFR INHIBITORS, COMPOSITIONS, AND METHODS RELATED THERETO” (Vyera Pharmaceuticais LLC, priority 2017, published 2020).
Read-outs that look alike come from different tables or passages of the source.

Key:
T. cruzi DHFR (tcDHFR) = T. cruzi DHFR (tcDHFR) (Trypanosoma cruzi, UniProt Q27793); experiment: biochemical; conditions: for Average DHFR selectivity (h/tc): hDHFR IC50/tcDHFR IC50
hDHFR = target: T1, hDHFR (Homo sapiens, UniProt P00374); format: biochemical
T1 sequence (P00374 1-187): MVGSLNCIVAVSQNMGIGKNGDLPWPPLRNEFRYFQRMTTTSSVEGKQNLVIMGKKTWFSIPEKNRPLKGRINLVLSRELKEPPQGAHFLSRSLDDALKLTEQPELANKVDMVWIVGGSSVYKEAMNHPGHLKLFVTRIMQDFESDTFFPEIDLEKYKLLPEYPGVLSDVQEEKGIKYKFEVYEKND

T. gondii DHFR (tgDHFR) = target: T2, T. gondii DHFR (tgDHFR) (Toxoplasma gondii, UniProt Q07422); experiment: biochemical; conditions: Table 16; for Average DHFR selectivity (h/tg): hDHFR IC50/tgDHFR IC50; for IC50: pIC50 = -log10 IC50, at least three replicates, read-out: tgDHFR pIC50-DHFR primary assay (converted)
T2 sequence (Q07422 1-610): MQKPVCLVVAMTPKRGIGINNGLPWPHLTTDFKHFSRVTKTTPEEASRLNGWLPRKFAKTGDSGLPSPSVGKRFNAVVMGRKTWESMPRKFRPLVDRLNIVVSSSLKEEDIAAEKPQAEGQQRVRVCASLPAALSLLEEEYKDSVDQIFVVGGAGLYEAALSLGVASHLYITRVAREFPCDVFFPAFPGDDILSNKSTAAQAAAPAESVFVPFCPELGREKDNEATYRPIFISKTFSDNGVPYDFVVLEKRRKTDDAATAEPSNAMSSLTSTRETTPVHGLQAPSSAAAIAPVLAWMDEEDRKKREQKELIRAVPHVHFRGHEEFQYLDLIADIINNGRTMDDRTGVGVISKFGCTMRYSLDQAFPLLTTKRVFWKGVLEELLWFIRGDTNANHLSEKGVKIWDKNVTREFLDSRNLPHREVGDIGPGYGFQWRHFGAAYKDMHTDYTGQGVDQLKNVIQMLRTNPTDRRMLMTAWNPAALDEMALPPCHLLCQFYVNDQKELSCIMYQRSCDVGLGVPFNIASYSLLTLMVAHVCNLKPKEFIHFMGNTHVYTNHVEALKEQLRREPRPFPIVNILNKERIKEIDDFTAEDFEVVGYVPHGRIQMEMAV

[1] = Table 17, pIC50 = -log10 IC50, at least three replicates, read-out: hDHFR pIC50-DHFR primary assay (converted)
[2] = Table 17, pIC50 = -log10 IC50, at least three replicates, read-out: tcDHFR pIC50-DHFR primary assay (converted)
[3] = Table 16, pIC50 = -log10 IC50, at least three replicates, read-out: hDHFR pIC50-DHFR primary assay (converted)

T. cruzi DHFR (tcDHFR), sequence (Q27793 whole entry): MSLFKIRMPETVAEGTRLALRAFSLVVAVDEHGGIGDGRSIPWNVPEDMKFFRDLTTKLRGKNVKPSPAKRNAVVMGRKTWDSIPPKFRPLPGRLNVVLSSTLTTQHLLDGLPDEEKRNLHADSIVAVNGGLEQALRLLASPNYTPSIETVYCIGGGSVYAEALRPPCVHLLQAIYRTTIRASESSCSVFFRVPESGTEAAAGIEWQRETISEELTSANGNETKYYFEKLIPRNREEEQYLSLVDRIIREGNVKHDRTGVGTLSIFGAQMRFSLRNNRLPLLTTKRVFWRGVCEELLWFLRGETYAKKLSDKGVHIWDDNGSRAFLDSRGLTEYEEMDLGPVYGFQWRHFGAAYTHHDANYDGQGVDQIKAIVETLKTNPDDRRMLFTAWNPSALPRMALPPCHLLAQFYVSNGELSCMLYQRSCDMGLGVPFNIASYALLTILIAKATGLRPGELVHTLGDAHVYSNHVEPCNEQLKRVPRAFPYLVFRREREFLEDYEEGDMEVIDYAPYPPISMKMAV

| IC50 (hDHFR; [1]) [nM] | Average DHFR selectivity (h/tc) (T. cruzi DHFR (tcDHFR); Table 17) | IC50 (T. cruzi DHFR (tcDHFR); [2]) [nM] | Compound | also measured |
| --- | --- | --- | --- | --- |
| – | – | – | Cc1ccc(N2CCN(c3cnc(N)nc3N)CC2)cc1 [Compound 8, 5-(4-(p-tolyl)piperazin-1-yl)pyrimidine-2,4-diamine] | IC50 (T. cruzi DHFR (tcDHFR)): 18.2 nM |
| – | – | – | COc1cccc(N2CCN(c3cnc(N)nc3N)CC2)c1 [Compound 9, 5-(4-(3-methoxyphenyl)piperazin-1-yl)pyrimidine-2,4-diamine] | IC50 (T. cruzi DHFR (tcDHFR)): 28.8 nM |
| – | – | – | Nc1ncc(N2CCN(c3ccc(C(F)(F)F)cc3)CC2)c(N)n1 [Compound 115, 5-(4-(4-(trifluoromethyl)phenyl)piperazin-1-yl)pyrimidine-2,4-diamine] | IC50 (T. cruzi DHFR (tcDHFR)): 6.17 nM; IC50 (hDHFR): 813 nM |
| 47.9 | 8.02 | 6.24 | Nc1ncc(N2CCN(c3ccnc(C(F)(F)F)c3)CC2)c(N)n1 [Compound 139, 5-(4-(2-(trifluoromethyl)pyridin-4-yl)piperazin-1-yl)pyrimidine-2,4-diamine] | Average DHFR selectivity (h/tg) (T. gondii DHFR (tgDHFR)): 2.03; IC50 (T. gondii DHFR (tgDHFR)): 39.8 nM; IC50 (hDHFR; [3]): 81.3 nM |
| 617 | 90.29 | 7 | Nc1ncc(N2CCN(c3ccc(C(F)(F)F)cn3)CC2)c(N)n1 [Compound 140, 5-(4-(5-(trifluoromethyl)pyridin-2-yl)piperazin-1-yl)pyrimidine-2,4-diamine] | – |
| 417 | 67.2 | 6.31 | Nc1ncc(N2CCN(c3ccc(Cl)nc3)CC2)c(N)n1 [Compound 141, 5-(4-(6-chloropyridin-3-yl)piperazin-1-yl)pyrimidine-2,4-diamine] | – |
| 7630 | 206.5 | 38.5 | Nc1ncc(N2CCN(c3cnc(C(F)(F)F)nc3)CC2)c(N)n1 [Compound 142, 5-(4-(2-(trifluoromethyl)pyrimidin-5-yl)piperazin-1-yl)pyrimidine-2,4-diamine] | – |
| 684 | 41.735 | 16.6 | Nc1ncc(N2CCN(c3ccc(F)c(Cl)c3)CC2)c(N)n1 [Compound 143, 5-(4-(3-chloro-4-fluorophenyl)piperazin-1-yl)pyrimidine-2,4-diamine] | – |
| 8610 | 52.69 | 170 | Nc1ncc(N2CCN(c3cc(Cl)ccc3F)CC2)c(N)n1 [Compound 144, 5-(4-(5-chloro-2-fluorophenyl)piperazin-1-yl)pyrimidine-2,4-diamine] | – |
| 1170 | 56.7 | 21.6 | Nc1ncc(N2CCN(c3cncc(Br)c3)CC2)c(N)n1 [Compound 145, 5-(4-(5-bromopyridin-3-yl)piperazin-1-yl)pyrimidine-2,4-diamine] | – |
| 7410 | 222.395 | 33.5 | Cc1ccc(N2CCN(c3cnc(N)nc3N)CC2)cn1 [Compound 146, 5-(4-(6-methylpyridin-3-yl)piperazin-1-yl)pyrimidine-2,4-diamine] | – |
| 180 | 24.92 | 7.41 | Nc1ncc(N2CCN(c3ccnc(Cl)c3)CC2)c(N)n1 [Compound 147, 5-(4-(2-chloropyridin-4-yl)piperazin-1-yl)pyrimidine-2,4-diamine] | – |
| 2190 | 94.81 | 22.9 | Nc1ncc(N2CCN(c3cc(Cl)ccn3)CC2)c(N)n1 [Compound 148, 5-(4-(4-chloropyridin-2-yl)piperazin-1-yl)pyrimidine-2,4-diamine] | – |
| 1970 | 122.69 | 16.2 | Nc1ncc(N2CCN(c3ccc(Cl)cn3)CC2)c(N)n1 [Compound 149, 5-(4-(5-chloropyridin-2-yl)piperazin-1-yl)pyrimidine-2,4-diamine] | – |
| 653 | 59.955 | 10.8 | Nc1ncc(N2CCN(c3cccc(Cl)n3)CC2)c(N)n1 [Compound 150, 5-(4-(6-chloropyridin-2-yl)piperazin-1-yl)pyrimidine-2,4-diamine] | – |
| 851 | 31.54 | 27.2 | Nc1ncc(N2CCN(c3cccc(OC4CCOCC4)c3)CC2)c(N)n1 [Compound 151, 5-(4-(3-((tetrahydro-2H-pyran-4-yl)oxy)phenyl)piperazin-1-yl)pyrimidine-2,4-diamine] | Average DHFR selectivity (h/tg) (T. gondii DHFR (tgDHFR)): 50.16; IC50 (T. gondii DHFR (tgDHFR)): 17 nM; IC50 (hDHFR; [3]): 851 nM |
| 3720 | 60.75 | 61.7 | Nc1ncc(N2CCN(c3ccc(F)nc3)CC2)c(N)n1 [Compound 156, 5-(4-(6-fluoropyridin-3-yl)piperazin-1-yl)pyrimidine-2,4-diamine] | – |
| – | – | – | COc1ncc(-c2ccnc(N3CCN(c4cnc(N)nc4N)CC3)c2)cn1 [Compound 165] | Average DHFR selectivity (h/tg) (T. gondii DHFR (tgDHFR)): 82.03; IC50 (T. gondii DHFR (tgDHFR)): 4.37 nM; IC50 (hDHFR; [3]): 355 nM |
| – | – | – | C[C@H]1CN(c2cnc(N)nc2N)CCN1c1cccc(C2CCOCC2)c1 [Compound 174] | Average DHFR selectivity (h/tg) (T. gondii DHFR (tgDHFR)): 30.69; IC50 (T. gondii DHFR (tgDHFR)): 31.6 nM; IC50 (hDHFR; [3]): 955 nM |
| – | – | – | C[C@@H]1CN(c2cnc(N)nc2N)CCN1c1cccc(C2CCOCC2)c1 [Compound 176] | Average DHFR selectivity (h/tg) (T. gondii DHFR (tgDHFR)): 47.03; IC50 (T. gondii DHFR (tgDHFR)): 2.29 nM; IC50 (hDHFR; [3]): 107 nM |
| 484 | 17.495 | 28.8 | Nc1ncc(N2CCN(c3cccc(C4CCCOC4)c3)CC2)c(N)n1 (centres unmarked) [Compound 179] | – |
| – | – | – | Nc1ncc(N2CCN(c3cccc(-c4cnc(O)nc4)n3)CC2)c(N)n1 [Compound 181, 5-(6-(4-(2,4-diaminopyrimidin-5-yl)piperazin-1-yl)pyridin-2-yl)pyrimidin-2-ol] | Average DHFR selectivity (h/tg) (T. gondii DHFR (tgDHFR)): 13.94; IC50 (T. gondii DHFR (tgDHFR)): 1.2 nM; IC50 (hDHFR; [3]): 16.6 nM |
| – | – | – | COc1ncc(-c2cccc(N3CC=C(c4cnc(N)nc4N)CC3)c2)cn1 [Compound 182, 5-(1-(3-(2-methoxypyrimidin-5-yl)phenyl)-1,2,3,6-tetrahydropyridin-4-yl)pyrimidine-2,4-diamine] | Average DHFR selectivity (h/tg) (T. gondii DHFR (tgDHFR)): 37.84; IC50 (T. gondii DHFR (tgDHFR)): 2.04 nM; IC50 (hDHFR; [3]): 77.6 nM |
| 2690 | 209.762 | 14 | COc1ccc(N2CCN(c3cnc(N)nc3N)CC2)cn1 [Compound 188, 5-(4-(6-methoxypyridin-3-yl)piperazin-1-yl)pyrimidine-2,4-diamine] | – |
| 68.4 | 25.16 | 2.82 | Nc1ncc(N2CCN(c3ccc(C4=CCOCC4)cc3)CC2)c(N)n1 [Compound 191, 5-(4-(4-(3,6-dihydro-2H-pyran-4-yl)phenyl)piperazin-1-yl)pyrimidine-2,4-diamine] | – |
| – | – | – | C[C@H]1CN(c2cnc(N)nc2N)CCN1c1cccc(C2=CCOCC2)c1 [Compound 192, (S)-5-(4-(3-(3,6-dihydro-2H-pyran-4-yl)phenyI)-3-methylpiperazin-1-yl)pyrimidine-2,4-diamine] | Average DHFR selectivity (h/tg) (T. gondii DHFR (tgDHFR)): 17.89; IC50 (T. gondii DHFR (tgDHFR)): 27.5 nM; IC50 (hDHFR; [3]): 479 nM |
| – | – | – | C[C@@H]1CN(c2cnc(N)nc2N)CCN1c1cccc(C2=CCOCC2)c1 [Compound 194, (R)-5-(4-(3-(3,6-dihydro-2H-pyran-4-yl)phenyl)-3-methylpiperazin-1-yl)pyrimidine-2,4-diamine] | Average DHFR selectivity (h/tg) (T. gondii DHFR (tgDHFR)): 18.10; IC50 (T. gondii DHFR (tgDHFR)): 1.82 nM; IC50 (hDHFR; [3]): 33.1 nM |
| – | – | – | CN(Cc1cnc2nc(N)nc(N)c2n1)c1ccc(C(=O)N[C@@H](CCC(=O)O)C(=O)O)cc1 [Methotrexate] | IC50 (T. cruzi DHFR (tcDHFR)): 1.1 nM |
| – | – | – | CCc1nc(N)nc(N)c1-c1ccc(Cl)cc1 [pyrimethamine, reference compound] | IC50 (T. cruzi DHFR (tcDHFR)): 1000 nM |

| Compound | IC50 (hDHFR; [1]) [nM] | Average DHFR selectivity (h/tc) (T. cruzi DHFR (tcDHFR); Table 17) | IC50 (T. cruzi DHFR (tcDHFR); [2]) [nM] | also measured |
| --- | --- | --- | --- | --- |
| Nc1ncc(N2CCN(c3cccc(-c4ccncn4)c3)CC2)c(N)n1 [Compound 102, 5-(4-(3-(pyrimidin-4-yl)phenyl)piperazin-1-yl)pyrimidine-2,4-diamine] | 1660 | – | – | IC50 (T. cruzi DHFR (tcDHFR)): 15.8 nM |
| Nc1ncc(N2CCN(c3ccc(C(F)(F)F)nc3)CC2)c(N)n1 [Compound 112] | 2040 | – | – | IC50 (T. cruzi DHFR (tcDHFR)): 5.62 nM |
| COc1ccc(N2CCN(c3cnc(N)nc3N)CC2)cc1 [Compound 114, 5-(4-(4-methoxyphenyl)piperazin-1-yl)pyrimidine-2,4-diamine] | 813 | – | – | IC50 (T. cruzi DHFR (tcDHFR)): 5.62 nM |
| Nc1ncc(N2CCN(c3ccc(F)cc3)CC2)c(N)n1 [Compound 116, 5-(4-(4-fluorophenyl)piperazin-1-yl)pyrimidine-2,4-diamine] | 5010 | – | – | IC50 (T. cruzi DHFR (tcDHFR)): 50.1 nM |
